Laboratory results: article PMC8225959, “Clickable Radiocomplexes With Trivalent Radiometals for Cancer Theranostics: In vitro and in vivo Studies” (Frontiers in Medicine, 2021)

Columns and labels:
[1] = In vivo stability: HPLC analysis of urine of injected mice; details: mouse urine, 1 h p.i.
Protocol: To assess the in vivo stability of the radiocomplexes, samples of blood and urine were collected from the mice injected with the compounds and analyzed by HPLC.
Blood samples from mice injected with the tested radiocomplexes, collected at sacrifice time, were
centrifuged, the serum separated and treated with ethanol (1:2 proportion) to precipitate the proteins
and the supernatant was analyzed by HPLC for stability evaluation. The urine samples were centrifuged
at 3000 rpm for 10 min and the supernatant was also analyzed by HPLC.

[2] = Biodistribution of [111In]In-radiocomplexes in healthy mice; assay type: in vivo
Protocol: We performed a biodistribution study of the four [^111In]In-radiocomplexes in healthy mice to determine the clearance rate from systemic blood circulation and the tissue/organ distribution over time. […] The urinary tract was identified as the main excretory pathway since the highest % I.D./g values were found in the kidneys for all the radiocomplexes, associated to rapid radioactivity excretion both at 15 min and 1 h p.i. […] page 9: from whole animal body. Blood samples were taken by cardiac puncture at sacrifice. […] The animals were kept under […] volume of approximate 390 ± 190 mm3. […] […] carried out on groups of 8 mice (n = 4). […] The animals were weighed and dissected.

in vivo stability / metabolization (urine HPLC) [1]: overall low degree of metabolization | Biodistribution: Blood ([2]; 15 min p.i.): 3.1 ± 0.4 % I.D./g | Biodistribution: Bone ([2]; 15 min p.i.): 0.78 ± 0.08 % I.D./g | Biodistribution: Heart ([2]; 15 min p.i.): 1.0 ± 0.2 % I.D./g | Biodistribution: Intestine ([2]; 15 min p.i.): 0.32 ± 0.05 % I.D./g | Biodistribution: Kidney ([2]; 15 min p.i.): 5.8 ± 1.3 % I.D./g | Biodistribution: Liver ([2]; 15 min p.i.): 1.1 ± 0.2 % I.D./g | Biodistribution: Lung ([2]; 15 min p.i.): 1.6 ± 0.3 % I.D./g | Biodistribution: Muscle ([2]; 15 min p.i.): 0.9 ± 0.2 % I.D./g | Biodistribution: Pancreas ([2]; 15 min p.i.): 0.53 ± 0.07 % I.D./g | Biodistribution: Spleen ([2]; 15 min p.i.): 0.66 ± 0.28 % I.D./g | Biodistribution: Stomach ([2]; 15 min p.i.): 0.5 ± 0.3 % I.D./g | Excretion ([2]; 15 min p.i.): 65.3 ± 5.4 % I.D. | Biodistribution: Blood ([2]; 1 h p.i.): 0.44 ± 0.07 % I.D./g | Biodistribution: Bone ([2]; 1 h p.i.): 0.11 ± 0.01 % I.D./g | Biodistribution: Heart ([2]; 1 h p.i.): 0.15 ± 0.08 % I.D./g | Biodistribution: Intestine ([2]; 1 h p.i.): 0.05 ± 0.01 % I.D./g | Biodistribution: Kidney ([2]; 1 h p.i.): 1.9 ± 0.3 % I.D./g | Biodistribution: Liver ([2]; 1 h p.i.): 0.70 ± 0.30 % I.D./g | Biodistribution: Lung ([2]; 1 h p.i.): 0.36 ± 0.04 % I.D./g | Biodistribution: Muscle ([2]; 1 h p.i.): 0.10 ± 0.02 % I.D./g | Biodistribution: Pancreas ([2]; 1 h p.i.): 0.09 ± 0.01 % I.D./g | Biodistribution: Spleen ([2]; 1 h p.i.): 0.18 ± 0.04 % I.D./g | Biodistribution: Stomach ([2]; 1 h p.i.): 0.09 ± 0.02 % I.D./g | Excretion ([2]; 1 h p.i.): 93.6 ± 0.8 % I.D. | Excretion ([2]; 1 h p.i., listed as [^111In]In-DOTA-PEG-Tz): above 90 % I.D.
SMILES: O=C([O-])CN1CCN(CC(=O)[O-])CCN(CC(=O)NCCOCCOCCOCCOCCOCCOCCOCCOCCOCCOCCOCCNC(=O)CCCC(=O)NCc2ccc(-c3nncnn3)cc2)CCN(CC(=O)[O-])CC1.[111In+3] [[111In]In-DOTA-PEG-Tz]
